Reference: patent publication EP4458412A1, “NOVEL PHOSPHOANTIGEN PRODRUG COMPOUND AND USE THEREOF” (University College Cardiff Consultants, Ltd., priority 2023, dated 2024)

Columns and labels:
human Vγ9/Vδ2^+ T cells = assay: Activation of human Vγ9/Vδ2+ T cells in PBMCs (CD69/CD25 upregulation, flow cytometry); format: cell-based; settings: for EC50: PBMCs incubated overnight, CD69+ CD25+ Vγ9/Vδ2 T cells, 10pM to 100µM; for activation of Vγ9/Vδ2 T cells at the highest concentration studied: 100 µM compared with 10 µM; for activation of Vγ9/Vδ2 T cells (rank in words): across the two series 9a-d and 14a-d, in vitro
Procedure: General: Healthy donor peripheral blood mononuclear cells (PBMCs) were harvested as described in Morita et al. 2007. In particular, blood was obtained in the presence of a mixture of heparin and ethylene diamino tetra acetic acid (EDTA) as anticoagulants (2 U/ml heparin, 1.5 mM EDTA) from consented healthy donors (approved by the NRES Committee West Midlands-Solihull Ethical Board; REC reference 14/WM/1254). Blood was then layered on a density gradient medium, lymphoprep (Stem Cell Technologies) and Peripheral blood mononuclear cells (PBMCs) were purified by gradient centrifugation. The cells were washed 2 times with Phosphate Buffered Saline (PBS), then resuspended in RPMI-1640 media supplemented with 2 mM L-glutamine, 25 mM HEPES, 1% sodium pyruvate, 50 µg/ml penicillin/streptomycin (Invitrogen) and 10% foetal calf serum.
(§1) To assess the activation of Vy9/V62 T cells, PBMCs were seeded into U-bottom tissue culture-treated 96-well plates at a cell density of 500,000 cells per well. […] The cells were incubated at 37°C/5%CO2 overnight, and stained by flow cytometry for the following markers: viability (Zombie Aqua 1:400), CD3 (BV421 1:100), CD8 (BV650 1:200), Vγ9 (PEcy5 1:400), V62 (APC 1:200), CD69 (PE 1:25), CD25 (FITC 1:100). The samples were acquired via LSRFortessa X20 (BD Biosciences), and the data obtained were analysed using FlowJo v10 and GraphPad Prism v9 software.
Peripheral blood γδ T-cells lack appreciable levels of surface CD69 or CD25 under steady state conditions, but T-cell receptor (TCR) stimulation upregulates both T-cell activation markers within 72 hours. PAg responsive Vy9/V62 T-cells were then distinguished by TCR Yγ9 and V62 expression and assessed for the upregulation CD69 and CD25. […]

Vγ9/Vδ2 T cells = settings: previously reported potencies (Hsiao 2014; Reichenberg 2003); cited from earlier work
[1] = Human serum stability monitored by 31P NMR; format: in vitro ADME; settings: 37 °C, 7.5 h
Procedure: This experiment was carried out as previously reported in Mehellou et al. 2020 and Slusarczyk, M.; Ferrari, V.; Serpi, M.; Gönczy, B.; Balzarini, J.; McGuigan, C; Symmetrical Diamidates as a Class of Phosphate Prodrugs to Deliver the 5'-Monophosphate Forms of Anticancer Nucleoside Analogues; ChemMedChem 2018, 13, 2305-2316 (hereinafter "McGuigan et al. 2018"), as well as Slusarczyk, M.; Lopez, M. H.; Balzarini, J.; Mason, M.; Jiang, W. G.; Blagden, S.; Thompson, E.; Ghazaly, E.; McGuigan, C. Application of ProTide technology to gemcitabine: a successful approach to overcome the key cancer resistance mechanisms leads to a new agent (NUC-1031) in clinical development. J. Med. Chem. 2014, 57, 1531-1542 (hereinafter "McGuigan et al. 2014").
Briefly, 5.0 mg of the phosphonodiamidate ProPAgen 9b was dissolved in a mixture of 0.05 mL of DMSO and 0.15 mL D2O. After recording the first ^31P NMR data, 0.3 mL human serum (Merck Life Sciences) was added and monitored by NMR. The experiment was run on NMR ^31P mode and scanned every half an hour for 7.5 h. The incubation temperature was 37°C. Recorded data were processed and analysed with Bruker Topspin 2.1 software.
ProPAgen 9b was incubated with human serum at 37 °C for 7.5 h and monitored by ^31P NMR spectroscopy. […]

carboxypeptidase Y = target: T1, carboxypeptidase Y (Saccharomyces cerevisiae, UniProt P00729); assay: Carboxypeptidase Y assay (in vitro metabolism, 31P NMR); format: in vitro ADME; settings: recombinant carboxypeptidase Y, 37 °C
T1 sequence (P00729 112-532): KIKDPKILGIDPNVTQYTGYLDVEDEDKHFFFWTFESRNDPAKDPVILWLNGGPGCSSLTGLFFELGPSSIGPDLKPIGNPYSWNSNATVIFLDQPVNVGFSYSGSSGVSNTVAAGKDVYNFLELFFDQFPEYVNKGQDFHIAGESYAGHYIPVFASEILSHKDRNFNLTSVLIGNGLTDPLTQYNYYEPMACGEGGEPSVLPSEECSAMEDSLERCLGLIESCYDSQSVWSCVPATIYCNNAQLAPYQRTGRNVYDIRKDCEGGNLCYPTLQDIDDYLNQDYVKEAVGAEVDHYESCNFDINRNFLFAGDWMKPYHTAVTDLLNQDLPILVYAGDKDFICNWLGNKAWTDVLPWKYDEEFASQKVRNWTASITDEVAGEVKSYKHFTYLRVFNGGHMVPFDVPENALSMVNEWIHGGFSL
Procedure: The in vitro metabolism of the phosphonodiamidate ProPAgens according to the present invention was investigated in a carboxypeptidase Y assay.
The carboxypeptidase Y assay was carried out as previously reported by Mehellou et al. 2020, McGuigan et al. 2018 and McGuigan et al. 2014. 5.0 mg of the phosphonodiamidate ProPAgen 9b was dissolved in 0.2 mL of acetone, and 0.4 mL of Trizma buffer (pH 7.4) was added followed by 0.5 mg carboxypeptidase Y in 0.2 ml Trizma buffer (pH 7.4). The phosphonodiamidate ProPAgen 9b was incubated with recombinant carboxypeptidase Y at 37 °C and monitored the reaction by ^31P-NMR for 12 h. Recorded data were processed and analysed with Bruker Topspin 2.1 software.

CD8^+ T cells = assay: Activation of CD8+ T cells in PBMC overnight cultures (CD69/CD25, flow cytometry); format: cell-based, human; settings: for concentration without CD8+ T cell activation relative to Vγ9/Vδ2 T-cell activation EC50: 1 µM versus EC50; for activation of CD8+ T cells: up to a concentration of 1 µM, overnight PBMC culture
Procedure: as §1
Like peripheral blood γδ T-cells, peripheral blood CD8^+ T-cells lack appreciable levels of surface CD69 or CD25 under steady state conditions, but upon T-cell receptor (TCR) stimulation upregulate both T-cell activation markers within 72 hours. PAg responsive CD8 T-cells were then distinguished by TCR CD8 expression and assessed for the upregulation CD69 and CD25.

[2] = system: T24 urinary bladder carcinoma cells; assay: Europium-based (DELFIA) cytotoxicity assay: lysis of drug-sensitized T24 cells by expanded Vγ9/Vδ2 T cells; format: cell-based, Human; settings: 10 nM ProPAgen, 2 h pretreatment, effector:target 80:1, compared with 10 µM Zoledronate
Procedure: Human T24 urinary bladder carcinoma cell lines were cultured in PBS for 2 h at 37°C/5% CO2 without ProPAgens (i.e. untreated), containing 10 µM zoledronate (i.e. the clinically used small molecule drug) or the indicated HMBP phosphonodiamidate ProPAgens of the present invention, i.e. ProPAgen 9d at a concentration of 10nM, and ProPAgen 14d at a concentration of 10nM. A positive control for cell death (target cells incubated with 10% v/v DELFIA lysis buffer) and media-only treated control (no drug) were also included. The cells were then washed 3 times at 600 x g for 5 min in PBS to remove any excess drug and incubated in PBS with BATDA labelling agent (used at 1µl per ml) for 20 min at 37°C as before.
In the meantime, ex vivo expanded Vy9/V62 T cells, i.e. Vy9/V62 T cells that have been expanded with 5µM Zoledronate and 100U/ml IL2 over a period of 14 days, were thawed, counted and resuspended to a cell concentration of 4 x 10^6 cells/ml. […]
The level of killing of T24 cells was then measured via time-resolved fluorescence using a PHERAstar microplate reader (BMG Labtech). Specific lysis (% killing of T24 cells) was calculated as follows: [(experimental release - spontaneous release)/(maximal release - spontaneous release)] x 100. The data were processed and analyzed using Microsoft Excel and GraphPad Prism v9 software. […]

Structure (SMILES): C/C(=C\COP(=O)(O)OP(=O)(O)O)CO [HMBPP, (E)-4-hydroxy-3-methylbut-2-enyl pyrophosphate, reference compound]
- EC50 (human Vγ9/Vδ2^+ T cells): 181 nM
- EC50 (Vγ9/Vδ2 T cells): 0.06 to 0.5 nM

Structure (SMILES): COC(=O)[C@H](C)NP(=O)(N[C@@H](C)C(=O)OC)C(F)(F)C/C=C(\C)CO [ProPAgen 9a, Dimethyl 2,2'-((((E)-1,1-difluoro-5-hydroxy-4-methylpent-3-en-1-yl)phosphor-yl)bis(azanediyl))(2S,2'S)-dipropionate]
- EC50 (human Vγ9/Vδ2^+ T cells): 191 nM

Structure (SMILES): C/C(=C\CC(F)(F)P(=O)(N[C@@H](C)C(=O)OC(C)C)N[C@@H](C)C(=O)OC(C)C)CO [ProPAgen 9b, Diisopropyl 2,2'-((((E)-1,1-difluoro-5-hydroxy-4-methylpent-3-en-1-yl)phosphor-yl)bis-(azanediyl))(2S,2'S)-dipropionate]
- EC50 (human Vγ9/Vδ2^+ T cells; Homo sapiens, T-cell): 167 nM
- half-life [1]: > 450 min
- time to appearance of three new 31P NMR peaks (metabolite 17) (carboxypeptidase Y; Trizma buffer pH 7.4): ≤ 0.5 h
- 31P NMR peaks of parent prodrug after incubation (carboxypeptidase Y; within 6.5 h): those of 9b were the minor

Structure (SMILES): C/C(=C\CC(F)(F)P(=O)(N[C@@H](C)C(=O)OC(C)(C)C)N[C@@H](C)C(=O)OC(C)(C)C)CO [ProPAgen 9c, Di-tert-butyl 2,2'-((((E)-1,1-difluoro-5-hydroxy-4-methylpent-3-en-1-yl)phosphoryl)bis(azanediyl))(2S,2'S)-dipropionate]
- EC50 (human Vγ9/Vδ2^+ T cells): 1500 nM

Structure (SMILES): C/C(=C\CC(F)(F)P(=O)(N[C@@H](C)C(=O)OCc1ccccc1)N[C@@H](C)C(=O)OCc1ccccc1)CO [ProPAgen 9d, Dibenzyl 2,2'-((((E)-1,1-difluoro-5-hydroxy-4-methylpent-3-en-1-yl)phosphoryl)-bis(azanediyl))(2S,2'S)-dipropionate]
- activation of Vγ9/Vδ2 T cells at the highest concentration studied (human Vγ9/Vδ2^+ T cells): less than that achieved with 10 µM
- activation of Vγ9/Vδ2 T cells (rank in words) (human Vγ9/Vδ2^+ T cells): most potent activation
- concentration without CD8+ T cell activation relative to Vγ9/Vδ2 T-cell activation EC50 (CD8^+ T cells): approx. 100,000 times
- activation of CD8+ T cells (CD8^+ T cells): did not exhibit activation
- sensitizing effects (specific lysis of T24 cells by Vγ9/Vδ2 T-cells) [2]: much more potent

Structure (SMILES): C/C(=C\CCP(=O)(N[C@@H](C)C(=O)OC(C)C)N[C@@H](C)C(=O)OC(C)C)CO [ProPAgen 14b, Diisopropyl 2,2'-((((E)-5-hydroxy-4-methylpent-3-en-1-yl)phosphoryl)bis(az-anediyl))-(2S,2'S)-dipropionate]
- EC50 (human Vγ9/Vδ2^+ T cells): 87 nM

Structure (SMILES): C/C(=C\CCP(=O)(N[C@@H](C)C(=O)OC(C)(C)C)N[C@@H](C)C(=O)OC(C)(C)C)CO [ProPAgen 14c, Di-tert-butyl 2,2'-((((E)-5-hydroxy-4-methylpent-3-en-1-yl)phosphoryl)bis(az-ane-diyl))-(2S,2'S)-dipropionate]
- EC50 (human Vγ9/Vδ2^+ T cells): 6100 nM

Structure (SMILES): C/C(=C\CCP(=O)(N[C@@H](C)C(=O)OCc1ccccc1)N[C@@H](C)C(=O)OCc1ccccc1)CO [ProPAgen 14d, Dibenzyl 2,2'-((((E)-5-hydroxy-4-methylpent-3-en-1-yl)phosphoryl)bis(azane-diyl))-(2S, 2'S)-dipropionate]
- activation of Vγ9/Vδ2 T cells at the highest concentration studied (human Vγ9/Vδ2^+ T cells): less than that achieved with 10 µM
- activation of Vγ9/Vδ2 T cells (rank in words) (human Vγ9/Vδ2^+ T cells): most potent activation
- concentration without CD8+ T cell activation relative to Vγ9/Vδ2 T-cell activation EC50 (CD8^+ T cells): approx. 100,000 times
- activation of CD8+ T cells (CD8^+ T cells): did not exhibit activation
- sensitizing effects (specific lysis of T24 cells by Vγ9/Vδ2 T-cells) [2]: much more potent

Structure (SMILES): O=P(O)(O)C(O)(Cn1ccnc1)P(=O)(O)O [zoledronate, reference compound]
- EC50 (human Vγ9/Vδ2^+ T cells; Homo sapiens, T-cell): 18500 nM
- EC50 (Vγ9/Vδ2 T cells): 3 to 500 nM
